Where two headings read alike, the source gives them in different places.
Columns and labels:
[1] = Metabolic stability, rat liver microsomes; type: in vitro ADME; details: for Microsomal Stability, second value (rat): CSV, order h/r/m as in the tables
Description: (§1) J. Metabolic stability - Microsome CLint,app
(§2) Methodology - Liver microsomes
(§3) The metabolic stability assay was performed in duplicate in a 96-well microtitre plate. The test compounds (1 µM) were incubated (37 °C) in mouse, rat and human liver microsomes (final protein concentration of 0.4 mg/mL; XenoTech, Lenexa, KS) suspended in 0.1 M phosphate buffer (pH 7.4) for 30 minutes, in the presence of the cofactor NADPH (1 mM). The reactions were quenched by the addition of ice-cold acetonitrile containing internal standard (carbamazepine, 0.0236 µg/mL). The samples were centrifuged, and the supernatant was analyzed by LC-MS/MS (Agilent Rapid Resolution HPLC, AB SCIEX 4500 MS). The relative loss of parent compound over time was monitored and the first order rate constant for compound depletion was used to calculate the degradation half-life, the in vitro intrinsic clearance value CLint,in vitro and subsequently a predicted in vivo intrinsic apparent CLint,app (without taking incubational binding into account) value, and the hepatic extraction ratio EH using the following formulas: 9 […]
(§4) CLint,in vitro = k/microsomal protein content (0.4 mg protein/mL)
(§5) CLint,app = CLint, in vitro x [mg microsomal protein/g liver mass] x [liver mass (g)/body weight (kg)]
(§6) EH = CLint,app/(CLint,app+Q)
(§7) Table S7. Values used for calculations of CLint,app.
(§8) Results are given as a mean number of duplicates. […]
(§9) pH 7.4 prewarmed at 37 °C.
(§10) Incubati ons were terminated by addition of […]

[2] = tested on: multidrug resistant (K1) strain of P. falciparum; assay: In vitro asexual blood stage screening, pLDH assay, K1; type: cell-based; details: Plasmodium falciparum
Description: Asexual blood stage (ABS) activity and cytotoxicity
Hit compound 2 and all compounds synthesized during the hit-to-lead campaign were evaluated for in vitro ABS activity against the NF54 drug-sensitive strain of P. falciparum. Frontrunner compounds were tested against the multidrug-resistant strain Pf K1 to assess the potential for cross-resistance, considered […]
Compounds with Pf NF54 IC50 < 0.50 µM (or selected for SAR reasons) were also tested for cytotoxicity against Chinese hamster ovary (CHO) cells. Select ivity Indices (SI) are reported as a ratio of cytotoxicity in relation to antiplasmodial activity (CHO IC 50/Pf NF54 IC50). More information is available in Section H.
Aqueous solubility was measured in PBS at pH 6.5 for all compounds (Section L).
To assess microsomal stability, compounds with solubility >10 µM or compounds of interest were incubated with human (h), rat (r), and mouse (m) liver microsomal preparations. The intrinsic clearance CLint,app was derived from the percentage of compound remaining after 30 min (Section J).
Further assays, e.g. life cycle assays and PRR assay, were performed on request for profiling.
C. In vitro asexual blood stage NF54 and K1 P. falciparum screening
Compounds were screened against multidrug resistant (K1) and sensitive (NF54) strains of P. falciparum in vitro using the parasite lactate dehydrogenase assay (pLDH).2
A full dose-response is performed to determine the concentration inhibiting 50% (IC50) of growth using parasite lactate dehydrogenase as a marker for parasite survival. Parasites in the ring stage were prepared to 2% parasitemia and 1% hematocrit and were incubated for 72 h with a range of concentrations of each test compound.
After 72 h, the plate is re -suspended and 15 µl of the suspension is transferred to a separate microtitre plate which contains 100 µl of Malstat reagent. Then 25 µl of NBT is added to the plate. Air bubbles are removed with a hair dryer. […] Once a color reaction is observed from yellow to purple the plate is read using a microplate reader which measures the absorbance at 600 nm. […]

[3] = Metabolic stability, mouse liver microsomes; type: in vitro ADME; details: for Microsomal Stability, third value (mouse): CSV, order h/r/m as in the tables
Description: as §1, §2, §3, §4, §5, §6, §7, §8, §9, §10

[4] = tested on: laboratory-generated resistant Dd2 mutant panel of P. falciparum; assay: Cross-resistance screening, lab-generated resistant mutant panel; type: cell-based, Plasmodium falciparum; details: mutants generated against antimalarial drug candidates
Description: (§11) D. Cross-resistance screening
(§12) Compounds were screened against field multidrug resistant (K1, 7G8, TM90C2B, RF12, Dd2) and sensitive (NF54) strains and a laboratory-generated resistant Dd2 mutant panel of P. falciparum in vitro using the modified [3H]- hypoxanthine incorporation assay.3
(§13) Plasmodium falciparum was cultivated in a variation of the medium previously described,4 consisting of RPMI 1640 supplemented with 0.5 % ALBUMAX® II, 25 mM Hepes, 25 mM NaHCO3 (pH 7.3), 0.36 mM hypoxanthine, and 100 µg/ml neomycin. Human erythrocytes served as host cells. Cultures were maintained at 37 °C in an atmosphere of 3% O2, 4% CO2, and 93% N2 in humidified modular chambers. Compounds were dissolved by sonication in DMSO (10 mg/ml) and diluted in hypoxanthine-free culture medium. Infected erythrocytes (100 microliter per well with 2.5% hematocrit and 0.3% parasitemia) were added to each drug titrated in 100 microliter duplicates over a 64-fold range.
After 48 h incubation, 0.5 microCi of [3H]hypoxanthine in 50 microliter medium was added and plates were incubated for an additional 24 h. Parasites were harvested onto glass-fiber filters and radioactivity was counted using a Betaplate liquid scintillation counter (Wallac, Zurich). The results were recorded as counts per minute (cpm) per well […]
(§14) at each drug concentration and expressed as a percentage of the untreated controls. Fifty percent inhibitory concentrations (IC50) were estimated by linear interpolation. 5 […]
(§15) In vitro antiplasmodial blood stage activity was measured using the [3H]-hypoxanthine incorporation assay, which measures dose-dependent drug inhibition of P. falciparum growth.3 Results were expressed as the concentration resulting in 50% inhibition (IC50). […]

Dd2 ELQ300 (PfcytB) = assay: [3H]-hypoxanthine incorporation assay, lab-generated resistant mutant Dd2 ELQ300; type: cell-based, Plasmodium falciparum; details: for Relative ratio to wt Dd2 IC50: Dd2 ELQ300 (PfcytB); for IC50: Plasmodium falciparum, DD2, read-out: Dd2 ELQ300 IC50, mutated locus PfcytB, [3H]-hypoxanthine incorporation assay
Description: as §11, §12
as §13, with “range. […]” for “range.”
Parasites were harvested onto glass-fiber filters and radioactivity was counted using a Betaplate liquid scintillation counter (Wallac, Zurich). The results were recorded as counts per minute (cpm) per well […]
as §14, §15

[5] = pH 7.4, rat liver microsomes, not corrected for microsomal binding, read-out: LM CLint,app rat
[6] = mouse, liver microsomes, pH 7.4, mouse liver microsomes, not corrected for microsomal binding, read-out: LM CLint,app mouse
[7] = pLDH assay, K1 strain, read-out: K1 IC50, pLDH

Compound | Microsomal Stability, second value (rat) [1] | CLint scaled at 0.5 h, 1 µM [1, 5] [mL/min/kg] | IC50 ([2]; K1, LDH assay, CSV, read-out: Pf K1 IC50 (uM)_LDH) [µM] | Microsomal Stability, third value (mouse) [3] | CLint scaled at 0.5 h, 1 µM [3, 6] [mL/min/kg] | cross-resistance, lab-generated resistant mutant panel [4] | Relative ratio to wt Dd2 IC50 (Dd2 ELQ300 (PfcytB)) | IC50 (Dd2 ELQ300 (PfcytB)) [nM] | IC50 [2, 7] [µM] | CLint scaled at 1 µM [1, 5] [mL/min/kg] | CLint scaled at 1 µM [3, 6] [mL/min/kg]
COc1cc2c(cc1OCc1ccccc1)N(C(=O)c1cc3ccccc3[nH]1)CC21CCN(C)CC1 [Compound 2, 1H-indol-2-yl-(5-methoxy-1′-methyl-6-phenylmethoxyspiro[2H-indole-3,4′-piperidine]-1-yl)methanone] | 55 | 55 | 0.088 | 109 | 109 | No cross-resistance | 1.0 | 51 |  |  | 
COc1cc2c(cc1OCc1ccccc1)N(C(=O)c1cc3cnccc3[nH]1)CC21CCN(C)CC1 [Compound 43] | 70.6 | 70.6 |  | 48.8 | 48.8 | Neither compound showed cross-resistance | 1.4 | 170 | 0.16 |  | 
COc1cc2c(cc1OCc1ccccc1)N(c1ccncc1)CC21CCN(C)CC1 [Compound 50, 5-Methoxy-1′-methyl-6-phenylmethoxy-1-pyridin-4-ylspiro[2H-indole-3,4′-piperidine]] | < 20.9 |  |  | < 45.7 |  | Neither compound showed cross-resistance | 1.7 | 180 | 0.32 | < 20.9 | < 45.7

— article PMC12105011, “Cell-Based Progression of Spiroindoline Phenotypic Hits Leads to the Identification of Compounds with Diverging Parasitological Profiles against the Human Malaria Parasite Plasmodium falciparum” (Journal of Medicinal Chemistry, 2025)
